Data set [1] can be described thus: Molar enthalpy of transition or fusion. Conditions: Crystal; DSC.
For data set [2] the following is noted: Crystal; DSC.

Each structure is given as a SMILES string. Numbers after ± are expanded uncertainties.

On to `C=C(C)C1Cc2c(ccc3c2OC2COc4cc(OC)c(OC)cc4C2C3=O)O1` (configuration not stated), for which the “Molar enthalpy of transition or fusion” value in data set [1] was 6.8 ± 0.203 kcal/mol. In addition, the Triple point temperature in data set [2] was 435.89 ± 1 K.

The values are drawn from the NIST ThermoML archive (doi:10.1021/acs.jced.8b01165).
